Laboratory results reported in patent US20240238448A1, “USE OF CHEMICAL EPIGENETIC MODIFIERS TO MODULATE GENE […] VECTORS” (The University of North Carolina at Chapel Hill, priority 2021, published 2024).
Read-outs that look alike come from different tables or passages of the source.

How the values were obtained:
[1] = test system: transgene (firefly luciferase) expression in HEK293T.17 cells; experiment: ZF-CEM technology AAV transgene expression, Promega Dual Luciferase Assay in HEK293T.17 cells; assay type: cell-based, human
Experimental: At a higher viral genomes per cell dose of virus, higher fold change in transgene (firefly luciferase) expression was seen. HEK293T.17 cells that stably express Renilla Luciferase (for normalization purposes) were plated at 7.5K cells per well in a 96 well plate. The next day, the cells were infected with ZF-CEM technology virus at either 2K or 20K vg/cell. After 24 hours, the cells were treated with varying concentrations of CEM87. After an additional 48 hours (72 hours post initial AAV infection), a Promega Dual Luciferase Assay was run to determine the levels of luciferase.
At 20K viral genomes per cell, ZF-CEM technology was able to increase the levels of transgene (firefly luciferase) expression in a statistically significant manner as early as 24 hours and continue to have effects up to 96 hours post CEM87 addition (FIG. 16). The highest fold change in luciferase expression was seen 24 hours after CEM87 dosage (48 hours after AAV infection). HEK293T.17 cells that stably express Renilla Luciferase (for normalization purposes) were plated at 7.5K cells per well in a 96 well plate. The next day, the cells were infected with ZF-CEM technology virus at 20K vg/cell. After 24 hours, the cells were treated with 200 nM CEM87. A Promega Dual Luciferase Assay was run every 24 hours post CEM87 dosage to determine the levels of luciferase over time.
At 20K viral genomes per cell, the impact of ZF-CEM technology on transgene expression was reversible through washout or washout with the addition of FK506, a chemical capable of competing off CEM87 from the transgene it is recruited to (FIG. 17). Reversibility was achieved within 24 hours of removal of CEM87 through washout or washout and treatment with 100× more FK506 ([…]). HEK293T.17 cells that stably express Renilla Luciferase (for normalization purposes) were plated at 7.5K cells per well in a 96 well plate. The next day, the cells were infected with ZF-CEM technology virus at 20K vg/cell. After 24 hours, the cells were treated with 200 nM CEM87. After 48 hours, wells were either washed out with fresh media or washed out with fresh media that contained […]. A Promega Dual Luciferase Assay was run every 24 hours post washout/FK506 dosage to determine the levels of luciferase over time.
HEK293T.17 cells that stably express Renilla Luciferase (for normalization purposes) were plated at 7.5K cells per well in a 96 well plate. The next day, the cells were infected with ZF-CEM technology virus at 20K vg/cell. After 24 hours, the cells were treated with 200 nM CEM114. After 48 hours, a Promega Dual Luciferase Assay was run to determine the levels of luciferase.

[2] = test system: AAV2-BD-JET-GFP genomes in 293-ZF-FKBP cells; experiment: CEM activation of AAV2-BD-JET-GFP vectors in 293-ZF-FKBP cells, GFP fluorescence by flow cytometry; assay type: cell-based, human; settings: AAV vectors without the engrafted ZF BD, or AAV2-BD-JET-GFP in WT 293 cells
Experimental: It was then examined whether CEM87 can control recombinant AAV transgene expression in transduced cells. HEK293T.17 cells that stably expresses ZF-FKBP were transduced with an AAV2 vector that contains a zinc finger DNA binding domain recognition sequence specific to the array in ZF-FKBP upstream of a JET promoter and an eGPF reporter gene downstream of the promoter. After 24 h the cell media was replaced with media containing either 200 nM CEM87 or a DMSO control. 48 hours post CEM87 addition, cells were imaged and flow cytometry run to determine the percent eGFP expression.
Some of these experiments relied on a 293 cell line harboring a stable constitutive ZF-FKBP cassette (293-ZF-FKBP) and transduction by AAV2-JET-GFP vectors harboring the ZF binding domain recognition sequence (BD) upstream of the constitutive JET promoter (FIG. 5). Two chemicals were investigated in these initial studies, CEM87 and CEM114 which bind ZF-FKBP and act to recruit BRD4 or CBP/p300, respectively. […] Following the transduction of AAV2-BD-Jet-GFP vectors to 293-ZF-FKBP cells, increasing concentrations of CEMs (87 or 114) were added to the culture medium. Two days later, GFP fluorescence was analyzed by flow cytometry.

[3] = Pharmacokinetics of CEM87 in mice; settings: mouse, in vivo
Experimental: Pharmacokinetic Data of CEM87 in Mice: Initial and encouraging pharmacokinetics (PK) analysis of CEM87 were conducted. Mice were administered a single 3 mg/kg dose of CEM87 via intravenous (IV) injection or a single dose of 30 mg/kg of CEM87 through the intraperitoneal (IP) route (n=9 per group, 3 mice per time point).

Row | Compound | chemical control of transgene (firefly luciferase) expression (in words) ([1]; 2K or 20K vg/cell, varying concentrations, 48 hours after CEM87 (72 hours post AAV infection)) | earliest time of statistically significant increase of transgene (firefly luciferase) expression post CEM87 addition ([1]; 20K vg/cell, 200 nM CEM87) [h] | time up to which effects on luciferase expression continue post CEM87 addition ([1]; 20K vg/cell, 200 nM CEM87) | time of highest fold change in luciferase expression after CEM87 dosage ([1]; 20K vg/cell, 200 nM CEM87, 48 hours after AAV infection) [h] | time to reversibility of transgene expression after removal of CEM87 ([1]; 20K vg/cell, 200 nM CEM87 for 48 hours, then washout or washout with 100× more FK506) [h] | drug response in control experiments [2] | AUC(0-t) ([3]; single 3 mg/kg IV, read-out: exposure (AUC0-24)) [ng·h/mL] | half-life ([3]; single 3 mg/kg IV, read-out: half-life (t1/2) (converted)) [h] | Cmax ([3]; single 3 mg/kg IV, read-out: maximal concentration (Cmax)) [ng/mL] | bioavailability ([3]; single 30 mg/kg IP) [%] | AUC(0-t) ([3]; single 30 mg/kg IP, read-out: AUC0-24) [ng·h/mL] | Cmax ([3]; single 30 mg/kg IP, read-out: Cmax) [ng/mL] | half-life ([3]; single 30 mg/kg IP, read-out: t1/2 (converted)) [h] | effect on AAV transgene expression (in words) ([1]; 20K vg/cell, 200 nM CEM114, 48 hours)
1 | COc1ccc2c(c1)C(c1ccc(Cl)cc1)=N[C@@H](CC(=O)NCc1cn(CCOCCOCCOCCNC(=O)CCSCCC[C@@H]3/C=C(\C)C[C@H](C)C[C@H](OC)[C@H]4O[C@@](O)(C(=O)C(=O)N5CCCC[C@H]5C(=O)O[C@H](/C(C)=C/[C@@H]5CC[C@@H](O)[C@H](OC)C5)[C@H](C)[C@@H](O)CC3=O)[C@H](C)C[C@@H]4OC)nn1)c1nnc(C)n1-2 [CEM87] | dose dependent chemical control | 24 | up to 96 hours | 24 | ≤ 24 | no drug response | 27500 | ~4 | 34100 | ~50 | 114000 | 15500 | 4 | 
2 | CO[C@H]1C[C@@H](C)C/C(C)=C/[C@@H](CCCSCCC(=O)NCCOCCOCCOCCn2cc(COc3ccc(CCc4nc5cc(-c6c(C)noc6C)ccc5n4CCN4CCOCC4)cc3F)nn2)C(=O)C[C@H](O)[C@@H](C)[C@@H](/C(C)=C/[C@@H]2CC[C@@H](O)[C@H](OC)C2)OC(=O)[C@@H]2CCCCN2C(=O)C(=O)[C@]2(O)O[C@H]1[C@@H](OC)C[C@H]2C [CEM114] |  |  |  |  |  |  |  |  |  |  |  |  |  | increase AAV transgene expression
